Measured values published in the NIST ThermoML archive (doi:10.1021/je500088z).
± gives the expanded uncertainty stated by the source.

Test: excess molar enthalpy (molar enthalpy of mixing); xn = mol fraction of the nth substance listed
Settings: 308.15 K, 101 kPa, Liquid, Calvet calorimetry

Row | SMILES | excess molar enthalpy (x2 = 0.126) [kJ/mol] | excess molar enthalpy (x2 = 0.2) [kJ/mol] | excess molar enthalpy (x2 = 0.33) [kJ/mol] | excess molar enthalpy (x2 = 0.435) [kJ/mol] | excess molar enthalpy (x2 = 0.499) [kJ/mol] | excess molar enthalpy (x2 = 0.601) [kJ/mol] | excess molar enthalpy (x2 = 0.701) [kJ/mol] | excess molar enthalpy (x2 = 0.802) [kJ/mol] | excess molar enthalpy (x2 = 0.901) [kJ/mol] | excess molar enthalpy (x2 = 0.113) [kJ/mol] | excess molar enthalpy (x2 = 0.297) [kJ/mol] | excess molar enthalpy (x2 = 0.401) [kJ/mol] | excess molar enthalpy (x2 = 0.515) [kJ/mol] | excess molar enthalpy (x2 = 0.6) [kJ/mol] | excess molar enthalpy (x2 = 0.703) [kJ/mol] | excess molar enthalpy (x2 = 0.825) [kJ/mol] | excess molar enthalpy (x2 = 0.9) [kJ/mol]
1 | C1CCNCC1 [piperidine] + C1COCCN1 | 0.105 ± 0.004 | 0.157 ± 0.005 | 0.222 ± 0.007 | 0.253 ± 0.008 | 0.264 ± 0.008 | 0.262 ± 0.008 | 0.236 ± 0.007 | 0.187 ± 0.006 | 0.109 ± 0.004 |  |  |  |  |  |  |  | 
2 | C1CCNCC1 [piperidine] + C1COCCO1 |  | 0.55 ± 0.017 |  |  |  |  |  |  |  | 0.357 ± 0.011 | 0.698 ± 0.022 | 0.787 ± 0.024 | 0.817 ± 0.025 | 0.78 ± 0.024 | 0.667 ± 0.021 | 0.451 ± 0.014 | 0.274 ± 0.009
